Experimental findings from US11565231B2, “Substrates, peptide arrays, and methods” (Vibrant Holdings, LLC, priority 2012, dated 2023) are described below.

The test system of assay [1] is antibodies of clinically proven celiac positive samples. Nature of the assay: Immunological binding assay on Periphilin-1 overlapping peptide array. The conditions noted are these: Periphilin-1 spanned as overlapping 12 amino acid peptides, signals significant when exceeding background (400) by a factor of 50. The procedure:
Immunological binding assays were performed on an array produced using the materials and methods described in the Examples above. The samples that were used to run the assays included clinically proven celiac positive samples.
The immunoactive regions of Periphilin-1 were determined. With reference to FIG. 17, the microarray substrate including the Periphilin-1 sequence split into 12 amino acid length peptide sequences is shown. […] Determination of background noise, background subtraction, and identification of signals that exceed background noise routine and well within the level of ordinary skill in the microarray binding arts. In this example, the mean background signal intensity was estimated to be 400 and signals were determined to be significant when they exceeded background by a factor of 50.

Assay [2] relates to IgA from a celiac positive sample. Description: Antibody assay (B peptides) on peptide array, IgA binding. The procedure: A peptide array comprising peptide fragment sequences synthesized on the surface of the array was generated according to the methods described above. The peptide array was developed to test all 12 mer sequences from alpha-gliadin, including sequences where glutamine was substituted with glutamate, as described above (see, e.g., FIGS. 15 and 16). A reduction reaction was performed to remove the disulfide bonds that exist between cysteine residues. This reaction was not performed when epitopes involving cyclic peptides based on cysteine bonds are needed. Dithiothreitol was prepared in a concentration of 0.1 g per 20 mL PBS-Tween (PBST). The peptide microarray (herein referred to as the peptide chip) was immersed in the DTT solution and placed in a nitrogen atmosphere at a pressure of 40 Pa at room temperature for 1 hour. […]
The peptide array was then analyzed to detect antibody/peptide complexes. […]
A set of 12-mer sequences generating weakly or strongly positive binding signals to celiac positive samples was compiled (see, e.g., Table A in Appendix A of U.S. Provisional Application No. 61/761,347, incorporated herein by reference). Using a computer programmed to undertake sequence analysis, subsequences present within this set of 12-mer sequences were determined using a series of sliding windows having a minimum length of 3 amino acids and maximum length of 11 amino acids. […]

Take PQQPEQII: in assay [1], the “subsequence identified for antibody binding” value was “key subsequence for antibody binding”.
In the case of QPEQPF [QPE-QPF], in assay [2] (alpha-gliadin 12-mer array incl. deamidated sequences, celiac positive samples), the “immune dominant subsequence (epitope) for antibody response amongst celiac positive subjects” value was “key immune dominant subsequence”. Also, the sample binding hits in assay [2] (celiac-positive serum sample, IgA binding, FIG. 18, Row QPE, Column QPF) is recorded as 91.78%.
